Patent publication US8148391B2 (Cephalon, Inc., priority 2006, dated 2012)
Where two headings read alike, the source gives them in different places.

Assays:
[1] = target: T1, baculovirus-expressed ALK (Homo sapiens, UniProt Q9UM73); experiment: ALK Kinase Assay (ELISA-type, time-resolved fluorescence); assay type: biochemical
T1 construct: host or cells: baculovirus expression system
Outline: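 Substrate coating: phospholipase C-γ, 10 μg/mL in TBS. Kinase step: 30 ng/ml ALK, 15 min, 37° C. Detection and analysis: Eu-N1 PT66 antibody, with IC50 fitted as a sigmoidal variable-slope dose-response curve.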

[2] = target: T2, c-Met (cytoplasmic domain) (Homo sapiens, UniProt P08581); experiment: c-Met Kinase Assay (same methods as for ALK, with modifications); assay type: biochemical
T2 construct: 10 ng/mL c-Met (cytoplasmic domain, Invitrogen Corporation #PV3143); purchased Invitrogen Corporation PV3143
Outline: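 This plate-based kinase format uses immobilized phospholipase C-γ as substrate, phosphorylated by c-Met cytoplasmic domain (10 ng/mL) at 37° C for 15 minutes.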

[3] = 1 μM ATP (Km level), read-out: ALK Activity (ALK Kinase Inhibition, IC50)
[4] = 1 μM ATP (Km level), read-out: cMet Activity (c-Met Kinase Inhibition, IC50)
[5] = 1 μM ATP (Km level), 30 ng/ml ALK, 37° C., 15 minutes, read-out: ALK Activity (ALK kinase inhibition, IC50 class)
[6] = 1 μM ATP (Km level), 10 ng/mL c-Met, read-out: cMet Activity (c-Met kinase inhibition, IC50 class)
[7] = ALK kinase inhibition, 1 μM ATP (Km level), read-out: ALK Activity
[8] = c-Met kinase inhibition, 1 μM ATP (Km level), read-out: cMet Activity
[9] = ALK kinase inhibition, 1 μM ATP, read-out: ALK Activity
[10] = c-Met kinase inhibition, 1 μM ATP, read-out: cMet Activity

T1 sequence (Q9UM73 19-1620): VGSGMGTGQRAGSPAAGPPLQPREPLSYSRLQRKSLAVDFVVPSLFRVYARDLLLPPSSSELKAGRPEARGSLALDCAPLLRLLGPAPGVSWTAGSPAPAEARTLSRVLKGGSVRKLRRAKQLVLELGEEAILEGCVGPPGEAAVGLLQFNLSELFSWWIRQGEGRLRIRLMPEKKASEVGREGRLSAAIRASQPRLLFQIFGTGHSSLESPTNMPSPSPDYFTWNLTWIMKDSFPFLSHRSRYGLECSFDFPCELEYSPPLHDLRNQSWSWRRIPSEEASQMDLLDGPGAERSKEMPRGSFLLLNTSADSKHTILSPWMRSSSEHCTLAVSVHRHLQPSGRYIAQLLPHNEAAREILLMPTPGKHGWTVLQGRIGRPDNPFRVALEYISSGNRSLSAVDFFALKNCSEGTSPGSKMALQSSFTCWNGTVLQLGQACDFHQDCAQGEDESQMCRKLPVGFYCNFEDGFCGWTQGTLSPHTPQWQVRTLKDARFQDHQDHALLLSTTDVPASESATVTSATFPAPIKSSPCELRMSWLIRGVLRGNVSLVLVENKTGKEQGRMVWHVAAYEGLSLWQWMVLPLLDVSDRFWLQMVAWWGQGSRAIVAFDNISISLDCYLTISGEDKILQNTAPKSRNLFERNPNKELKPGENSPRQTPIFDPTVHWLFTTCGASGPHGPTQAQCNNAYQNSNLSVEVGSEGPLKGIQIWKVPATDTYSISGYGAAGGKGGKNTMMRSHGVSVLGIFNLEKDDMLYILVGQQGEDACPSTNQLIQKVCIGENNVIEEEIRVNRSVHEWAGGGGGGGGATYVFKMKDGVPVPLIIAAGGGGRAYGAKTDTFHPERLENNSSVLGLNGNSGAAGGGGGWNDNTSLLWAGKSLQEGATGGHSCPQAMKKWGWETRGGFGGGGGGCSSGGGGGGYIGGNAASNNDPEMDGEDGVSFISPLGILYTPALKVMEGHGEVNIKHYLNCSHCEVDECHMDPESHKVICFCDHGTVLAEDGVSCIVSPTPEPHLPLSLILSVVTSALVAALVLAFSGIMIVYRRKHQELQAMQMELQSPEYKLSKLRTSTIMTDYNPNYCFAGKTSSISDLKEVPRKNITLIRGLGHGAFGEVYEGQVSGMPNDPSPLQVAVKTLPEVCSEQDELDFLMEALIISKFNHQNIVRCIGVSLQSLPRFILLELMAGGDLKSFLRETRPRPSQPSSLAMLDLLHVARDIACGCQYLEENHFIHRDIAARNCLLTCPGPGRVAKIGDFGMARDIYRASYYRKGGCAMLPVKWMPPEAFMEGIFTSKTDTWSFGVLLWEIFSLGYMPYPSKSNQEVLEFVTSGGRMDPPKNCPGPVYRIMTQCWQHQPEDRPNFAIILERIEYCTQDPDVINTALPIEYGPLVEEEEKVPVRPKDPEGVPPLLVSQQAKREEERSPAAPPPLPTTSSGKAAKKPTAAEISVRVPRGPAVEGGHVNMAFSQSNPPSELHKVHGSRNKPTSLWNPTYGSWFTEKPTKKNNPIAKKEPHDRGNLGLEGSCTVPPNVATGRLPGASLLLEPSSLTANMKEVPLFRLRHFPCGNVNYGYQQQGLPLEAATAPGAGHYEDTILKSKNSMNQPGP
T2 sequence (P08581 956-1390 limits assumed): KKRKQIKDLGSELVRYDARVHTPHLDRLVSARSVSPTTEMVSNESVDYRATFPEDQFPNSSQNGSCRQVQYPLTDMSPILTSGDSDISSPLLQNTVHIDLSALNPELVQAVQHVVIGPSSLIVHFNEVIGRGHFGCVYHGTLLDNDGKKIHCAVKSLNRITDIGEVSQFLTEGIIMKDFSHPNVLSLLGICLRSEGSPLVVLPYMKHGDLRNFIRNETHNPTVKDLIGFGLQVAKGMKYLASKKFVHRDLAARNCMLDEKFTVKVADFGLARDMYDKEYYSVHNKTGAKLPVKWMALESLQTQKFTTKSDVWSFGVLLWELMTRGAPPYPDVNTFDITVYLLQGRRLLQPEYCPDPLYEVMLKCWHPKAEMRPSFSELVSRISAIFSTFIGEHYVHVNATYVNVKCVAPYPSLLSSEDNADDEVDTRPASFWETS

Compound: COc1ccc(Nc2ncc(Cl)c(Nc3ccccc3S(=O)(=O)N(C)C)n2)c2c1CCCC(N1CCOCC1)C2 (stereo not drawn) [Example 945, 2-[5-Chloro-2-(4-methoxy-8-morpholin-4-yl-6,7,8,9-tetrahydro-5H-benzocyclohepten-1-ylamino)-pyrimidin-4-ylamino]-N,N-dimethyl-benzenesulfonamide]
- IC50 [1, 3]: 1000 to 10000 nM
- IC50 [2, 4]: > 10000 nM

Compound: CCCNC(=O)c1ccccc1Nc1nc(Nc2ccc3c(c2)CCN(CCOC)CC3)ncc1Cl [Example 1023, 2-{5-Chloro-2-[3-(2-methoxy-ethyl)-2,3,4,5-tetrahydro-1H-benzo[d]azepin-7-ylamino]-pyrimidin-4-ylamino}-N-propyl-benzamide]
- IC50 [1, 5]: < 100 nM
- IC50 [2, 6]: 100 to 1000 nM

Compound: COc1ccc(Nc2nc(Nc3ccc4c(c3)C(C)(C)CCC(=O)N4)ncc2Cl)c(-n2cccn2)c1 [Example 611, 7-[5-Chloro-4-(4-methoxy-2-pyrazol-1-yl-phenylamino)-pyrimidin-2-ylamino]-5,5-dimethyl-1,3,4,5-tetrahydro-benzo[b]azepin-2-one]
- IC50 [1, 3]: < 100 nM
- IC50 [2, 4]: 1000 to 10000 nM

Compound: CC1(C)CCC(=O)Nc2ccc(Nc3ncc(Cl)c(Nc4ccccc4-c4ncccc4C(F)(F)F)n3)cc21 [Example 991, 7-{5-Chloro-4-[2-(3-trifluoromethyl-pyridin-2-yl)-phenylamino]-pyrimidin-2-ylamino}-5,5-dimethyl-1,3,4,5-tetrahydro-benzo[b]azepin-2-one]
- IC50 [1, 3]: 100 to 1000 nM
- IC50 [2, 4]: > 10000 nM

Compound: CCN1CCc2cc(Nc3ncc(Cl)c(Nc4ccccc4C(=O)NC)n3)c(OC)cc2CC1=O [Example 253, 2-[5-Chloro-2-(3-ethyl-8-methoxy-2-oxo-2,3,4,5-tetrahydro-1H-benzo[d]azepin-7-ylamino)-pyrimidin-4-ylamino]-N-methyl-benzamide]
- IC50 [1, 7]: < 100 nM
- IC50 [2, 8]: 1000 to 10000 nM

Compound: COCC(COC)N1CCc2cc(Nc3ncc(Cl)c(Nc4ccccc4S(=O)(=O)C(C)C)n3)c(OC)cc2CC1 [Example 817, 5-Chloro-N*2*-[8-methoxy-3-(2-methoxy-1-methoxymethyl-ethyl)-2,3,4,5-tetrahydro-1H-benzo[d]azepin-7-yl]-N*4*-[2-(propane-2-sulfonyl)-phenyl]-pyrimidine-2,4-diamine]
- IC50 [1, 3]: < 100 nM
- IC50 [2, 4]: > 10000 nM

Compound: CNC(=O)c1cccc(F)c1Nc1nc(Nc2ccc3c(c2)NCC(NCCOC)CC3(C)C)ncc1Cl (stereo not drawn) [Example 1294, 2-{5-Chloro-2-[3-(2-methoxy-ethylamino)-5,5-dimethyl-2,3,4,5-tetrahydro-1H-1-benzazepin-8-ylamino]-pyrimidin-4-ylamino}-3-fluoro-N-methyl-benzamide]
- IC50 [1, 5]: < 100 nM
- IC50 [2, 6]: < 100 nM

Compound: CCNC(=O)c1ccccc1Nc1nc(Nc2ccc3c(c2)CCC(N2CCOCC2)CC3)ncc1Cl (stereo not drawn) [Example 866, 2-[5-Chloro-2-(7-morpholin-4-yl-6,7,8,9-tetrahydro-5H-benzocyclohepten-2-ylamino)-pyrimidin-4-ylamino]-N-ethyl-benzamide]
- IC50 [1, 3]: < 100 nM
- IC50 [2, 4]: < 100 nM

Compound: CCN1CCc2ccc(Nc3ncc(Cl)c(N[C@@H]4CCCC[C@H]4NC(=O)N(C)C)n3)cc2CC1 [Example 447, 3-{(1R,2R)-2-[5-Chloro-2-(3-ethyl-2,3,4,5-tetrahydro-1H-benzo[d]azepin-7-ylamino)-pyrimidin-4-ylamino]-cyclohexyl}-1,1-dimethyl-urea]
- IC50 [1, 7]: 100 to 1000 nM
- IC50 [2, 8]: 100 to 1000 nM

Compound: COc1cc2c(cc1Nc1ncc(Cl)c(Nc3ccccc3OC)n1)CCN(CCS(C)(=O)=O)CC2 [Example 1132, 5-Chloro-N*2*-[3-(2-methanesulfonyl-ethyl)-8-methoxy-2,3,4,5-tetrahydro-1H-benzo[d]azepin-7-yl]-N*4*-(2-methoxy-phenyl)-pyrimidine-2,4-diamine]
- IC50 [1, 5]: < 100 nM
- IC50 [2, 6]: > 10000 nM

Compound: COc1cc2c(cc1Nc1ncc(Cl)c(N[C@H]3[C@@H](C(N)=O)[C@@H]4C=C[C@H]3C4)n1)CCC(NCC(F)F)CC2 (single isomer, unassigned) [Example 1054]
- IC50 [1, 5]: < 100 nM
- IC50 [2, 6]: > 10000 nM

Compound: CCN1CCc2ccc(Nc3ncc(Cl)c(Nc4cccc(OCC#N)c4)n3)cc2CC1 [Example 927, {3-[5-Chloro-2-(3-ethyl-2,3,4,5-tetrahydro-1H-benzo[d]azepin-7-ylamino)-pyrimidin-4-ylamino]-phenoxy}-acetonitrile]
- IC50 [1, 3]: < 100 nM
- IC50 [2, 4]: 100 to 1000 nM

Compound: CNC(=O)c1ccccc1Nc1nc(Nc2cc3c(cc2OC)CCN(CCOC)CC3)ncc1Br [Example 198, 2-{5-Bromo-2-[8-methoxy-3-(2-methoxy-ethyl)-2,3,4,5-tetrahydro-1H-benzo[d]azepin-7-ylamino]-pyrimidin-4-ylamino}-N-methyl-benzamide]
- IC50 [1, 7]: < 100 nM
- IC50 [2, 8]: 1000 to 10000 nM

Compound: CNC(=O)c1ccccc1Nc1nc(Nc2ccc3c(c2)CCOC(=O)N3C)ncc1Cl [Example 1741, 2-[5-Chloro-2-(5-methyl-6-oxo-5,6,8,9-tetrahydro-7-oxa-5-aza-benzocyclohepten-2-ylamino)-pyrimidin-4-ylamino]-N-methylbenzamide]
- IC50 [1, 9]: < 100 nM
- IC50 [2, 10]: < 100 nM

Compound: CNC(=O)c1ccccc1Nc1nc(Nc2ccc3c(c2)CCN(C)CC3)ncc1Cl [Example 46, 2-[5-Chloro-2-(3-methyl-2,3,4,5-tetrahydro-1H-benzo[d]azepin-7-ylamino)-pyrimidin-4-ylamino]-N-methyl-benzamide]
- IC50 [1, 7]: < 100 nM
- IC50 [2, 8]: < 100 nM

Compound: Cc1n[nH]c(-c2ccccc2Nc2nc(Nc3ccc4c(c3)CCOC(=O)N4C)ncc2Cl)n1 [Example 1788, 2-{5-Chloro-4-[2-(5-methyl-2H-[1,2,4]triazol-3-yl)-phenylamino]-pyrimidin-2-ylamino}-5-methyl-8,9-dihydro-5H-7-oxa-5-aza-benzocyclohepten-6-one]
- IC50 [1, 9]: < 100 nM
- IC50 [2, 10]: < 100 nM

Compound: CNC(=O)c1cc(-c2cnn(C)c2)cc(F)c1Nc1nc(Nc2ccc3c(c2)N(C(C)=O)CCCO3)ncc1Cl [Example 1424, 2-[2-(9-Acetyl-6,7,8,9-tetrahydro-5-oxa-9-aza-benzocyclohepten-2-ylamino)-5-chloro-pyrimidin-4-ylamino]-3-fluoro-N-methyl-5-(1-methyl-1H-pyrazol-4-yl)-benzamide]
- IC50 [1, 5]: 100 to 1000 nM
- IC50 [2, 6]: < 100 nM

Compound: COCCN1CC(=O)Nc2cc(Nc3ncc(Cl)c(N[C@H]4[C@@H](C(N)=O)[C@@H]5C=C[C@H]4C5)n3)c(OC)cc2C1 [Example 1665, (1S,2S,3R,4R)-3-{5-Chloro-2-[7-methoxy-4-(2-methoxy-ethyl)-2-oxo-2,3,4,5-tetrahydro-1H-benzo[e][1,4]diazepin-8-ylamino]-pyrimidin-4-ylamino}-bicyclo[2.2.1]hept-5-ene-2-carboxylic acid amide]
- IC50 [1, 9]: < 100 nM
- IC50 [2, 10]: > 10000 nM

Compound: COCCN1CCN(C)c2cc(Nc3ncc(Cl)c(Nc4ccc(N5CCOCC5)cc4OC)n3)c(OC)cc2C1 [Example 495, 5-Chloro-N*2*-[7-methoxy-4-(2-methoxy-ethyl)-1-methyl-2,3,4,5-tetrahydro-1H-benzo[e][1,4]diazepin-8-yl]-N*4*-(2-methoxy-4-morpholin-4-yl-phenyl)-pyrimidine-2,4-diamine]
- IC50 [1, 7]: < 100 nM
- IC50 [2, 8]: > 10000 nM

Compound: CN1CCN(S(C)(=O)=O)Cc2ccc(Nc3ncc(Cl)c(N[C@@H]4CCCC[C@H]4NS(C)(=O)=O)n3)cc21 [Example 477, N-{(1R,2R)-2-[5-Chloro-2-(4-methanesulfonyl-1-methyl-2,3,4,5-tetrahydro-1H-benzo[e][1,4]diazepin-8-ylamino)-pyrimidin-4-ylamino]-cyclohexyl}-methanesulfonamide]
- IC50 [1, 7]: < 100 nM
- IC50 [2, 8]: 1000 to 10000 nM

Compound: CNC(=O)c1ccccc1Nc1nc(Nc2ccc3c(c2)CNC(=O)CCN3C(=O)C(F)(F)F)ncc1Cl [Example 1301, 2-{5-Chloro-2-[4-oxo-1-(2,2,2-trifluoro-acetyl)-1,2,3,4,5,6-hexahydro-benzo[b][1,5]diazocin-8-ylamino]-pyrimidin-4-ylamino}-N-methyl-benzamide]
- IC50 [1, 5]: < 100 nM
- IC50 [2, 6]: < 100 nM

Compound: CNC(=O)c1ccccc1Nc1nc(Nc2ccc3c(c2)C(C)(C)NC(=O)CC3)ncc1Cl [Example 1833, 2-(5-Chloro-2-(1,1-dimethyl-3-oxo-2,3,4,5-tetrahydro-1H-benzo[c]azepin-8-ylamino)pyrimidin-4-ylamino)-N-methylbenzamide]
- IC50 [1, 9]: < 100 nM
- IC50 [2, 10]: 100 to 1000 nM

Compound: CC(C)S(=O)(=O)c1ccccc1Nc1nc(Nc2ccc3c(c2)CCC(O)CC3)ncc1Cl (stereo not drawn) [Example 1037, 2-{5-Chloro-4-[2-(propane-2-sulfonyl)-phenylamino]-pyrimidin-2-ylamino}-6,7,8,9-tetrahydro-5H-benzocyclohepten-7-ol]
- IC50 [1, 5]: < 100 nM
- IC50 [2, 6]: 100 to 1000 nM

Compound: C=CCOc1cc(N2CCOCC2)cc(F)c1Nc1nc(Nc2ccc3c(c2)CCOC(=O)N3C)ncc1Cl [Example 1700, 2-[4-(2-Allyloxy-6-fluoro-4-morpholin-4-yl-phenylamino)-5-chloro-pyrimidin-2-ylamino]-5-methyl-8,9-dihydro-5H-7-oxa-5-aza-benzocyclohepten-6-one]
- IC50 [1, 9]: < 100 nM
- IC50 [2, 10]: 1000 to 10000 nM
